The source of these data is patent publication US4309554A, “3-(2-Thiophenesulfonyl)-2-halopropanenitriles” (The Dow Chemical Company, priority 1980, dated 1982).

Values after ≈ are worked out from the molar mass of the structure shown.

What all share (assay type): cell-based
The test system of one test is S. aureus. In words: in vitro agar Petri dish dilution test, MIC against S. aureus. As to conditions: Staphylococcus aureus; S. aureus (Sa). An excerpt:
(§1) The compounds have antimicrobial utility. In conventional in vitro agar Petri dish dilution tests for determining antimicrobial activity, the compounds of the Examples had minimum inhibitory concentrations (MIC) against the indicated organisms in parts per million (ppm) as follows: […]

The subject of another test is C albicans. In words: in vitro agar Petri dish dilution test, MIC against C albicans. As to conditions: C albicans (Ca).
Source text: as §1

Another test deals with P. pullulans. Briefly: in vitro agar Petri dish dilution test, MIC against P. pullulans. As to conditions: P. pullulans (Pp).
Source text: as §1

The test system of another test is A. aerogenes. Briefly: in vitro agar Petri dish dilution test, MIC against A. aerogenes. The settings on record: Klebsiella aerogenes; A. aerogenes (Aa).
Source text: as §1

In test [1] the test system is Trichoderm Sp. Madison P42. Briefly: in vitro agar Petri dish dilution test, MIC against Trichoderm Sp. Madison P42. The settings on record: Trichoderm Sp. Madison P42 (Tr 42).
Source text: as §1

The test system of the next test is Ceratocystis IPS. In words: in vitro agar Petri dish dilution test, MIC against Ceratocystis IPS. As to conditions: Ceratocystis IPS (CI).
Source text: as §1

For test [2], the system named is Pseudomonas Sp. Strain 10. Briefly: in vitro agar Petri dish dilution test, MIC against Pseudomonas Sp. Strain 10. As to conditions: Pseudomonas Sp. Strain 10 (Ps 10).
Source text: as §1

A further test relates to T. mentagrophytes. Briefly: in vitro agar Petri dish dilution test, MIC against T. mentagrophytes. The settings on record: Trichophyton mentagrophytes; T. mentagrophytes (Tm).
Source text: as §1

The next test concerns A. niger. Briefly: in vitro agar Petri dish dilution test, MIC against A. niger. As to conditions: Aspergillus niger; A. niger (An).
Source text: as §1

The subject of another test is C. pelliculosa. In words: in vitro agar Petri dish dilution test, MIC against C. pelliculosa. As to conditions: Hansenula anomala; C. pelliculosa (Cp).
Source text: as §1

The subject of the next test is B. subtilis. Briefly: in vitro agar Petri dish dilution test, MIC against B. subtilis. The settings on record: Bacillus subtilis; B. subtilis (head Be, footnote Bs).
Source text: as §1

The test system of a further test is S. typhosa. In words: in vitro agar Petri dish dilution test, MIC against S. typhosa. As to conditions: S. typhosa (St).
Source text: as §1

The next test relates to E. coli. Briefly: in vitro agar Petri dish dilution test, MIC against E. coli. The settings on record: Escherichia coli; E. coli (Ec).
Source text: as §1

Turning to `Cc1ccc(S(=O)(=O)CC(Cl)C#N)s1` (stereo not drawn) [2(a)], the minimum inhibitory concentration (MIC) (in the test on S. aureus; with C albicans; against P. pullulans; against A. aerogenes; in test [1]; with Ceratocystis IPS) was 50 µg/mL (≈ 200 µM) in each case. The MIC is 500 µg/mL (≈ 2000 µM) in [2]; 50 µg/mL (≈ 200 µM) in the test with T. mentagrophytes; 50 µg/mL (≈ 200 µM) against A. niger; 50 µg/mL (≈ 200 µM) with C. pelliculosa; 10 µg/mL (≈ 40 µM) with B. subtilis.
For `CCc1ccc(S(=O)(=O)CC(Cl)C#N)s1` (stereo not drawn) [2(b)], the MIC in the test with S. aureus stood at 5 µg/mL (≈ 19 µM); against C albicans, 500 µg/mL (≈ 1900 µM); against P. pullulans, 500 µg/mL (≈ 1900 µM); against A. aerogenes it was 100 µg/mL (≈ 379 µM); in test [1], 500 µg/mL (≈ 1900 µM); with Ceratocystis IPS it was 100 µg/mL (≈ 379 µM). Besides, the MIC was 500 µg/mL (≈ 1900 µM) in test [2]; 50 µg/mL (≈ 190 µM) in the test with T. mentagrophytes; 5 µg/mL (≈ 19 µM) with S. typhosa; 500 µg/mL (≈ 1900 µM) in the test on A. niger; 100 µg/mL (≈ 379 µM) against C. pelliculosa; 50 µg/mL (≈ 190 µM) with E. coli. The compound further came in with an MIC against B. subtilis of 5 µg/mL (≈ 19 µM).
`CCCCc1ccc(S(=O)(=O)CC(Cl)C#N)s1` (stereo not drawn) [2(c)]: the minimal inhibitory concentration (MIC) with S. aureus was 5 µg/mL (≈ 17.1 µM); in the test on C albicans, 50 µg/mL (≈ 171 µM); against P. pullulans, 50 µg/mL (≈ 171 µM); in the test with A. aerogenes, 500 µg/mL (≈ 1710 µM); in test [1] it was 500 µg/mL (≈ 1710 µM); in the test with Ceratocystis IPS, 50 µg/mL (≈ 171 µM). Also, the MIC was found to be 500 µg/mL (≈ 1710 µM) in [2]; 50 µg/mL (≈ 171 µM) against T. mentagrophytes; 500 µg/mL (≈ 1710 µM) in the test on A. niger; 50 µg/mL (≈ 171 µM) against C. pelliculosa; 500 µg/mL (≈ 1710 µM) with E. coli; 5 µg/mL (≈ 17.1 µM) in the test on B. subtilis.
On to `N#CC(Cl)CS(=O)(=O)c1cccs1` (stereo not drawn) [Example 1, 3-(2-Thiophenesulfonyl)-2-chloropropane nitrile], for which the MIC is 100 µg/mL (≈ 424 µM) with S. aureus; 10 µg/mL (≈ 42.4 µM) with C albicans; 10 µg/mL (≈ 42.4 µM) in the test on P. pullulans; 100 µg/mL (≈ 424 µM) in the test with A. aerogenes; 100 µg/mL (≈ 424 µM) in test [1]; 100 µg/mL (≈ 424 µM) in the test on Ceratocystis IPS. The MIC in test [2] was 100 µg/mL (≈ 424 µM); in the test on T. mentagrophytes, 10 µg/mL (≈ 42.4 µM); against A. niger, 100 µg/mL (≈ 424 µM); against C. pelliculosa, 10 µg/mL (≈ 42.4 µM); in the test with E. coli, 100 µg/mL (≈ 424 µM); with B. subtilis, 100 µg/mL (≈ 424 µM).
